Measurements from patent US20240309043A1, “THERAPEUTICALLY ACTIVE STEROIDAL DERIVATIVES” (Organon R&D Finland Ltd., priority 2017, published 2024).

What was measured:
Type in all cases: biochemical
[1] = molecular target: T1, recombinant human 17β-HSD1 (Homo sapiens, UniProt P14061); experiment: Inhibition of recombinant human 17β-HSD1; conditions: inhibitor 100 nM; 30 nM estrone, 1 mM NADPH, 30 min RT
T1 construct: made in house; host or cells: Sd9 (Sf9) insect cells, baculovirus (Bac to Bac Expression System)
T1 sequence (P14061 1-328): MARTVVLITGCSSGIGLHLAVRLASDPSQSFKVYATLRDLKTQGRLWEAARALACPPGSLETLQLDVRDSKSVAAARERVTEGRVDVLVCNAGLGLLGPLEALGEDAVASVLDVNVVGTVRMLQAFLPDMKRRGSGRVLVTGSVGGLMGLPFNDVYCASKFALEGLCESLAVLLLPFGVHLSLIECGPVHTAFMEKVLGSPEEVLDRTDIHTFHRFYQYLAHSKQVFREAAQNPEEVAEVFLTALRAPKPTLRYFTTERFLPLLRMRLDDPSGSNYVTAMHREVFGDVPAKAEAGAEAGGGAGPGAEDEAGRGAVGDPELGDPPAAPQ
Description: 17β-HSD1 production and isolation: Recombinant baculovirus was generated by the “Bac to Bac Expression System” (Invitrogen). Recombinant bacmid was transfected to Sd9 insect cells using “Cellfectin Reagent” (Invitrogen). 60 h later cells were harvested; the microsomal fraction was isolated as described by Puranen, T. J., Poutanen, M. H., Peltoketo, H. E., Vihko, P. T. and Vihko, R. K. (1994) Site-directed mutagenesis of the putative active site of human 17 β-hydroxysteroid dehydrogenase type 1. Biochem. J. 304: 289-293. Aliquots were stored frozen until determination of enzymatic activity.
Assay—Inhibition of recombinant human 17β-HSD1: Recombinant protein (1 μg/ml) was incubated in 20 mM KH2PO4 pH 7.4 with 30 nM estrone (including 800 000 cpm/ml of ^3H-estrone) and 1 mM NADPH for 30 min at RT, in the presence of the potential inhibitor at concentrations 1 μM or 0.1 μM. Inhibitor stock solutions were prepared in DMSO. Final concentration of DMSO was adjusted to 1% in all samples. The enzyme reaction was stopped by addition of 10% trichloroacetic acid (final concentration). Samples were centrifuged in a microtiter plate at 4000 rpm for 10 min. Supernatants were applied to reverse phase HPLC on a Waters Symmetry C18 column, equipped with a Waters Sentry Guard column. Isocratic HPLC runs were performed at RT at a flow rate of 1 ml/min in acetonitrile:water 48:52 as running solvent. Radioactivity was monitored in the eluate by a Scintillation Analyzer. Total radioactivity for estrone and estradiol were determined in each sample and percent conversion of estrone to estradiol was calculated according to the following formula:
(§1) [formula] Percent inhibition was calculated flowingly: % inhibition=100−% conversion

[2] = molecular target: T2, recombinant human 17β-HSD2 (Homo sapiens, UniProt P37059); experiment: Inhibition of recombinant human 17β-HSD2; conditions: inhibitor 1 μM; 50 nM estradiol, 1 mM NADH, 30 min RT
T2 construct: made in house; host or cells: Sd9 (Sf9) insect cells, baculovirus (Bac to Bac Expression System)
T2 sequence (P37059 1-387): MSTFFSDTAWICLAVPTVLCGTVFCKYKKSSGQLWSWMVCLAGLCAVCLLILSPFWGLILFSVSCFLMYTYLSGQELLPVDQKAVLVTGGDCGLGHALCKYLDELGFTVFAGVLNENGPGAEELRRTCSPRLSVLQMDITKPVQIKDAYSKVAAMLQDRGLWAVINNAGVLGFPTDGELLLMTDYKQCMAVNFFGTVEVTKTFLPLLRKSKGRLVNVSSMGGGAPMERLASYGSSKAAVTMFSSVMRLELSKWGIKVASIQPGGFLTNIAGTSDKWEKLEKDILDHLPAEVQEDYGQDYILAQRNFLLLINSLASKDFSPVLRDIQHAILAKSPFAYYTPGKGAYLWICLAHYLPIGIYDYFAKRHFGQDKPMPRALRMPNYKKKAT
Description: 17β-HSD2 production and isolation: Similarly to 17β-HSD1 the Recombinant baculovirus was generated by the “Bac to Bac Expression System” (Invitrogen). Recombinant bacmid was transfected to Sd9 insect cells using “Cellfectin Reagent” (Invitrogen). 60 h later cells were harvested and supernatant were fractionated by the following protocol: • cells were dissolved into 40 ml of A-buffer (40 mM TRIS, pH 8.0, 20% glycerol, 20 μM NAD, 0.4 mM PMSF, 150 mM NaCl, 0.5% dodecyl-β-maltoside+protease inhibitor cocktail) • cells were sonicated • lysate was incubated on ice for 15 min • lysate was centrifuged 5000 rpm 15 min, +4° C. • centrifugation of the supernatant 180 000 g 30 min, +4° C. • pellet was dissolved into 8 ml of A-buffer • not resuspended material was removed by centrifugation 5000 rpm min, +4° C. • the clear supernatant was divided into 100 μl aliquots and were stored frozen until determination of enzymatic activity.
The amount of 17β-HSD2 was analysed by immunoblotting and total protein concentration of each extract batch was determined.
Assay—Inhibition of recombinant human 17β-HSD2: Recombinant protein (4 μg/ml) was incubated in 20 mM KH2PO4 pH 8.5 with 50 nM estradiol (including 800 000 cpm/ml of ^3H-estradiol) and 1 mM NADH for 30 min at RT, in the presence of the potential inhibitor at concentrations 1 μM or 0.1 μM. Inhibitor stock solutions were prepared in DMSO. Final concentration of DMSO was adjusted to 1% in all samples. The enzyme reaction was stopped by addition of 10% trichloroacetic acid (final concentration). Samples were centrifuged in a microtiter plate at 4000 rpm for 10 min. Supernatants were applied to reverse phase HPLC on a Waters Symmetry C18 column, equipped with a Waters Sentry Guard column. Isocratic HPLC runs were performed at RT at a flow rate of 1 ml/min in acetonitrile:water 48:52 as running solvent. Radioactivity was monitored in the eluate by a Scintillation Analyzer. Total radioactivity for estrone and estradiol were determined in each sample and percent conversion of estradiol to estrone was calculated according to the following formula:
as §1

[3] = tested on: HSD1 enzyme that is expressed in rabbit placenta tissue; experiment: Inhibition of E1 to E2 conversion in rabbit placenta tissue homogenate; conditions: inhibitor 100 nM, 30 nM estrone, 30 min
Description: The assay is based on an enzymatic reaction where HSD1 enzyme that is expressed in rabbit placenta tissue converts its natural substance estrone (E1) to estradiol (E2) in the presence of a co-factor β-NADPH.
Homogenization of rabbit placenta tissue: Weight a piece of the frozen tissue into a Precellys ck28 bead tube. Add buffer solution (20 mM KH2PO4 with 1 mM EDTA, pH 7,4) in 1:2 ratio (e.g. 300 mg of tissue:600 μl reaction buffer solution). Insert the bead tubes to homogenizer and homogenize 2×30 s. 6000 rpm. Centrifugated 5 min., 2600 rpm at +4° C. and collect supernatant. Aliquots of homogenate are stored in −80° C.
Assay—Inhibition of E1 to E2 conversion in rabbit placenta tissue: The reaction takes place in a buffer solution (20 mM KH2PO4 with 1 mM EDTA, pH 7,4), including appropriate amount of rabbit placenta homogenate, co-factor (1 mM β-NADPH), Substrate (30 nM estrone), labelled substrate as tracer (5 nM [^3H]-estrone). During a 30-minute incubation part of the estrone is converted to estradiol. The reaction is stopped by lowering the pH to 1 with 10% trichloro acetic acid (TCA). The substrate and conversion products are analyzed by HPLC and a Scintillation counter analyzer. Total radioactivity for estrone and estradiol were determined in each sample and percent conversion of estrone to estradiol was calculated according to the following formula:
Percent inhibition was calculated flowingly: % inhibition=100−% conversion.

Row | Compound | inhibition at 0.1 µM [1] [%] | inhibition at 1 µM [2] [%] | Rabbit placenta inhibition % @100 nM [3] [%]
1 | Cc1cccnc1NC(=O)CC[C@@H]1C/C(=N\O)[C@@]2(C)CCC3c4ccc(Cl)cc4CCC3C12 (stereo partly drawn) [Compound 60, 3-((13S,15R,E)-3-chloro-17-(hydroxyimino)-13-methyl-7,8,9,11,12,13,14,15,16,17-decahydro-6H-cyclopenta[a]phenanthren-15-yl)-N-(3-methylpyridin-2-yl)propanamide] | 38 | 2 | 4
2 | CN(C(=O)CC[C@@H]1C/C(=N\O)[C@@]2(C)CCC3c4ccccc4CCC3C12)C1CCOCC1 (stereo partly drawn) [Compound 80, 3-((13S,15R,E)-17-(hydroxyimino)-13-methyl-7,8,9,11,12,13,14,15,16,17-decahydro-6H-cyclopenta[a]phenanthren-15-yl)-N-methyl-N-(tetrahydro-2H-pyran-4-yl)propanamide] | 32 | 4 | 3
3 | CN(C)C(=O)c1ccc(NC(=O)CC[C@@H]2C/C(=N\O)[C@@]3(C)CCC4c5ccccc5CCC4C23)nc1 (stereo partly drawn) [Compound 92, 6-(3-((13S,15R,E)-17-(hydroxyimino)-13-methyl-7,8,9,11,12,13,14,15,16,17-decahydro-6H-cyclopenta[a]phenanthren-15-yl)propanamido)-N,N-dimethylnicotinamide] | 37 | 9 | 15
4 | C[C@]12CCC3c4cccc(F)c4CCC3C1[C@H](CCC(=O)Nc1cnccn1)C/C2=N\O (stereo partly drawn) [Compound 126, 3-((13S,15R,E)-4-fluoro-17-(hydroxyimino)-13-methyl-7,8,9,11,12,13,14,15,16,17-decahydro-6H-cyclopenta[a]phenanthren-15-yl)-N-(pyrazin-2-yl)propanamide] | 53 | 3 | 26
5 | C[C@]12CCC3c4ccc(F)cc4CCC3C1[C@H](CCC(=O)Nc1cccnn1)C/C2=N\O (stereo partly drawn) [Compound 34, 3-((13S,15R,E)-3-fluoro-17-(hydroxyimino)-13-methyl-7,8,9,11,12,13,14,15,16,17-decahydro-6H-cyclopenta[a]phenanthren-15-yl)-N-(pyridazin-3-yl)propanamide] | 23 | 9 | 
6 | C[C@]12CCC3c4ccc(F)cc4CCC3C1[C@H](CCC(=O)Nc1nncs1)C/C2=N\O (stereo partly drawn) [Compound 38, 3-((13S,15R,E)-3-fluoro-17-(hydroxyimino)-13-methyl-7,8,9,11,12,13,14,15,16,17-decahydro-6H-cyclopenta[a]phenanthren-15-yl)-N-(1,3,4-thiadiazol-2-yl)propanamide] | 21 | 3 | 
7 | CN(C(=O)CC[C@@H]1C/C(=N\O)[C@@]2(C)CCC3c4cccc(F)c4CCC3C12)C1COC1 (stereo partly drawn) [Compound 12, 3-((13S,15R,E)-4-fluoro-17-(hydroxyimino)-13-methyl-7,8,9,11,12,13,14,15,16,17-decahydro-6H-cyclopenta[a]phenanthren-15-yl)-N-methyl-(oxetan-3-yl)propanamide] | 73 | 2 | 
8 | C[C@]12CCC3c4cccc(F)c4CCC3C1[C@H](CCC(=O)Nc1cc3c([nH]c1=O)CCCC3)C/C2=N\O (stereo partly drawn) [Compound 178, 3-((13S,15R,E)-4-fluoro-17-(hydroxyimino)-13-methyl-7,8,9,11,12,13,14,15,16,17-decahydro-6H-cyclopenta[a]phenanthren-15-yl)-N-(2-oxo-12,5,6,7,8-hexahydroguinolin-3-yl)propanamide] | 95 | 9 | 
9 | C[C@]12CCC3c4cccc(F)c4CCC3C1[C@H](CCC(=O)Nc1ccccn1)C/C2=N\O (stereo partly drawn) [Compound 138, 3-((13S,15R,E)-4-fluoro-17-(hydroxyimino)-13-methyl-7,8,9,11,12,13,14,15,16,17-decahydro-6H-cyclopenta[a]phenanthren-15-yl)-N-(pyridin-2-yl)propanamide] | 89 |  | 36
